In PubChem BioAssay (NCI) one finds GI50 and TGI data, which are given here for 14 molecules.

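In this assay, cells in 96-well plates receive the compound at five concentrations for 48 hours. Endpoints are linearly interpolated between the surrounding concentrations. The concentration for 50% growth inhibition is given as GI50. TGI: concentration producing complete growth inhibition.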 Where only a bound is given, the exact number is not on record here.

Holding throughout (test): inhibition of tumour cell growth, NCI panel, 48 h
Experiment [1] concerns 786-0 renal.
The test system of experiment [2] is DU-145 prostate.
The subject of experiment [3] is HT29 colon.
In experiment [4] the test system is KM12 colon.
Experiment [5] deals with MALME-3M melanoma.
Experiment [6] relates to MCF7 breast.
The test system of experiment [7] is MDA-MB-435.
For experiment [8], the system named is OVCAR-8 ovarian.
Experiment [9] concerns EKVX NSCLC.
Experiment [10] has as its system NCI-H522 lung.

For `O=S(=O)(NCCNc1nccc(-c2c(-c3ccc(F)cc3)nc3sccn23)n1)c1ccccc1`, the GI50 in experiment [1] is 4.77 µM; in experiment [2], 5.14 µM; in experiment [3], 2.31 µM; in experiment [4] it was 4.12 µM; in experiment [5] it was 5.82 µM; in experiment [6] it was 0.722 µM. For the same molecule, the GI50 in [7] is 2.56 µM; in experiment [8], 4.17 µM. The TGI was above 100 µM in experiment [1]; above 100 µM in experiment [2]; above 100 µM in experiment [3]; 68.3 µM in experiment [4]; 51.1 µM in [5]; above 100 µM in [6]. In addition, the TGI in experiment [7] and in experiment [8] was above 100 µM throughout.
Turning to `COc1ccc(Nc2c3ccccc3nc3[nH]c4ccccc4c23)cc1`, the GI50 in experiment [1] was 11.4 µM; in experiment [2], 6.47 µM; in experiment [9] it was 10.9 µM; in experiment [3] it was 16.6 µM; in experiment [4], above 50 µM; in experiment [6], 7.95 µM. Further, the GI50 in experiment [7] was 8.92 µM; in experiment [10] it was 41.5 µM; in experiment [8], 30.2 µM. Besides, the TGI in experiment [1] is 49.2 µM; in experiment [2], 33.9 µM; in experiment [9] it was above 50 µM; in [3], above 50 µM; in experiment [4], above 50 µM; in experiment [6], above 50 µM. The TGI in experiment [7], in [10] and in experiment [8] was above 50 µM throughout.
On to `O=C(Nc1ccc(Cl)c(Cl)c1)OCCN1c2ccccc2Sc2ccccc21`, for which the TGI in experiment [1], in [2], in experiment [3], in experiment [4], in [5] and in experiment [6] was above 10 µM throughout. The TGI in experiment [7], in experiment [10] and in [8] was above 10 µM throughout.
As to `O=C1OC(OCC#CCOC2OC(=O)C(Cl)=C2Cl)C(Cl)=C1Cl` (centres undefined), the TGI amounted to 16.8 µM in experiment [1]; 38.2 µM in experiment [2]; 40.1 µM in experiment [9]; 18.1 µM in experiment [3]; 39.3 µM in experiment [4]; 21.8 µM in experiment [6]. The results for the TGI in [7], in experiment [10] and in experiment [8] were 27.2 µM, 3.72 µM and 20.8 µM, respectively.
As to `COc1ccc(Nc2cc(C)nc(N3CCN(c4ccnc5cc(Cl)ccc45)CC3)n2)cc1`, the GI50 in experiment [1] is 2.61 µM; in experiment [2], 6.57 µM; in experiment [3] it was 2.83 µM; in experiment [4], 1.64 µM; in [5], 3.17 µM; in experiment [6] it was 0.284 µM. Moreover, the GI50 is 1.06 µM in experiment [7], 2.02 µM in experiment [10] and 3.25 µM in experiment [8]. Further, the TGI in [1] was above 100 µM; in [2] it was above 100 µM; in experiment [3] it was 8.11 µM; in experiment [4] it was 31.6 µM; in experiment [5], above 100 µM; in [6] it was 4.51 µM. Moreover, the values for the TGI in experiment [7], in experiment [10] and in experiment [8] were 6.43 µM, 5.27 µM and above 100 µM, respectively.
As to `Cc1c(Sc2ccccc2)[n+](=O)c2cc(Cl)c(Cl)cc2n1[O-]`, the GI50 is 22 µM in [1]; 23.4 µM in [2]; above 100 µM in [9]; 79.9 µM in experiment [3]; above 100 µM in experiment [4]; 38.3 µM in [6]. In addition, the GI50 was 95.6 µM in experiment [7], 23.6 µM in experiment [10] and 25.6 µM in [8]. Also, the TGI in experiment [1] is 43.4 µM; in experiment [2] it was 44.8 µM; in experiment [9], above 100 µM; in experiment [3] it was above 100 µM; in experiment [4], above 100 µM; in experiment [6] it was above 100 µM. Also, the TGI was above 100 µM in [7], 57.7 µM in experiment [10] and above 100 µM in experiment [8].
Take `COc1ccc(-c2nn(-c3cccc(NC(=O)c4ccc(N5CCOCC5)c(C(F)(F)F)c4)c3)cc2-c2ccncc2)cc1Cl`: the GI50 was 1.51 µM in [1]; above 50 µM in [2]; 1.72 µM in [3]; 2.11 µM in [4]; 5.05 µM in experiment [5]; 3.11 µM in experiment [6]. Besides, the figures for the GI50 in experiment [7], in [10] and in experiment [8] were 2.6 µM, 2.77 µM and 4.47 µM, respectively. In addition, the TGI was 27.6 µM in [1]; above 50 µM in [2]; above 50 µM in [3]; above 50 µM in experiment [4]; above 50 µM in experiment [5]; above 50 µM in experiment [6]. In addition, the TGI in experiment [7] is 35 µM; in [10] it was 34.4 µM; in experiment [8] it was above 50 µM.
For `COC(=O)[C@@H](C)C[C@H](Cc1ccccc1)NC(=O)c1csc([C@@H](C[C@H](C(C)C)N(C)C(=O)[C@H](C)NC(=O)[C@H]2CCCCN2C)OC(C)=O)n1`, the GI50 is 1.05 µM in [1]; 1.05 µM in experiment [2]; 5.74 µM in experiment [9]; 0.816 µM in [3]; 1.11 µM in experiment [4]; 0.437 µM in experiment [6]. For the same molecule, the GI50 in experiment [7] was 0.121 µM; in experiment [10], 0.384 µM; in [8] it was 3.67 µM. Also, the TGI in [1], in experiment [2], in [9], in experiment [3], in experiment [4] and in [6] was above 25 µM in each case. The TGI was 0.522 µM in [7], 1.35 µM in experiment [10] and above 25 µM in experiment [8].
With `Cn1c(=O)c(Oc2ccc(F)cc2F)cc2cnc(NCCS(C)(=O)=O)nc21`, the GI50 in experiment [1], in experiment [2], in experiment [3], in experiment [4], in experiment [5] and in experiment [6] was above 25 µM each time. For the same molecule, the GI50 in [7], in [10] and in experiment [8] was above 25 µM throughout. The TGI in experiment [1], in [2], in experiment [3], in [4], in experiment [5] and in [6] was above 25 µM in each case. Further, the TGI in [7], in experiment [10] and in experiment [8] was above 25 µM in each case.
Regarding `Oc1ccc(Cl)cc1CNc1nc2ccccc2[nH]1`, the GI50 was 14.3 µM in experiment [1]; 16.2 µM in experiment [2]; 17.2 µM in experiment [3]; 13.3 µM in experiment [4]; 13.8 µM in experiment [5]; 10.4 µM in [6]. Also, the GI50 in [7] is 13.2 µM; in [10], 11.9 µM; in [8] it was 12.9 µM. Moreover, the TGI in experiment [1] is 31.4 µM; in [2], 32.4 µM; in [3], 35.5 µM; in experiment [4] it was 27 µM; in [5], 32.9 µM; in experiment [6], 33.1 µM. Moreover, the results for the TGI in experiment [7], in [10] and in [8] were 26.2 µM, 27.7 µM and 30.8 µM, respectively.
On to `C=CS(=O)(=O)CCN1CC1`, for which the TGI in experiment [1], in experiment [2], in experiment [3], in [4], in [5] and in [6] was above 10 µM each time. Moreover, the TGI in [7], in [10] and in experiment [8] was above 10 µM each time.
For the molecule `CN(/N=N/c1nc(OCc2ccccc2)c2[nH]cnc2n1)C(=O)Oc1ccc([N+](=O)[O-])cc1`, the GI50 in experiment [1] is 8.76 µM; in experiment [2] it was 9.02 µM; in experiment [9] it was 11.5 µM; in experiment [4], 8.49 µM; in experiment [6] it was 12.4 µM; in [7], 12.4 µM. Also, in [8], the GI50 is 9.81 µM. Also, the TGI is 23.7 µM in experiment [1]; 19.5 µM in experiment [2]; 35.9 µM in [9]; 18.7 µM in experiment [4]; above 50 µM in [6]; 39.8 µM in experiment [7]. Further, the TGI in experiment [8] was determined as 26.3 µM.
Take `COc1cc(Cl)cc(-c2nn(-c3cccc(NC(=O)Nc4ccc(Cl)c(C(F)(F)F)c4)c3)cc2-c2ccncc2)c1`: the GI50 in experiment [1] was 1.59 µM; in experiment [2] it was 1.86 µM; in experiment [3] it was 1.14 µM; in experiment [4], 0.555 µM; in experiment [5] it was 1.71 µM; in experiment [6], 1.01 µM. Besides, the GI50 in experiment [7] is 1.76 µM; in [10], 0.418 µM; in [8] it was 0.739 µM. Moreover, the TGI was 4.27 µM in [1]; 14 µM in [2]; 4.38 µM in experiment [3]; 4.44 µM in [4]; 8.59 µM in experiment [5]; 11 µM in experiment [6]. In addition, the results for the TGI in experiment [7], in experiment [10] and in [8] were 4.36 µM, 2.5 µM and 5.93 µM, respectively.
Regarding `O=C1CC(c2ccc(Cl)cc2)Oc2ccccc21` (centres undefined), the TGI in [1] was 32.4 µM; in experiment [2] it was above 100 µM; in experiment [9], 54.8 µM; in experiment [3], 21.2 µM; in experiment [4], 31.5 µM; in experiment [6] it was 13.6 µM. Also, the TGI in experiment [7] and in experiment [8] was above 100 µM in each case.
